Reference: patent US8962574B2 (Boehringer Ingelheim International GmbH, priority 2008, dated 2015)

Experiments:
[1] = test system: patients with atrial fibrillation at risk of stroke; assay: RELY Clinical Trial, dabigatran 110 mg or 150 mg twice daily versus warfarin; assay type: in vivo
From the text: The primary study outcome was stroke or systemic embolism. The primary safety outcome was major hemorrhage. Secondary outcomes were stroke, systemic embolism and death. […] All other bleeding was considered minor.
All analyses were based on intention-to-treat.

[2] = test system: AF patients; conditions: ACTIVE W, warfarin arm; cited from earlier work

With `CC(=O)CC(c1ccccc1)c1c(O)c2ccccc2oc1=O` (racemic) [warfarin, 3-(α-acetonylbenzyl)4-hydroxycoumarin] the “ALT or AST >3xULN” value ([1]; adjusted to INR 2.0 to 3.0) was “(2.1) %”, the “ALT or AST >3xULN with concurrent bilirubin >2xULN” value ([1]; adjusted to INR 2.0 to 3.0) was “(0.4) %” and the “ALT or AST >3xULN with concurrent bilirubin >2xULN, number of patients” value ([1]; adjusted to INR 2.0 to 3.0) was 22. For the same compound, the “ALT or AST >3xULN, number of patients” value ([1]; adjusted to INR 2.0 to 3.0) was 126, the “Adverse Event Arthralgia” value ([1]; adjusted to INR 2.0 to 3.0) was “(5.5) %” and the “Adverse Event Arthralgia, number of patients” value ([1]; adjusted to INR 2.0 to 3.0) was 328. For the same compound, the “Adverse Event Atrial fibrillation” value ([1]; adjusted to INR 2.0 to 3.0) was “(5.4) %”, the “Adverse Event Atrial fibrillation, number of patients” value ([1]; adjusted to INR 2.0 to 3.0) was 326 and the “Adverse Event Back pain” value ([1]; adjusted to INR 2.0 to 3.0) was “(5.5) %”. For the same compound, the “Adverse Event Back pain, number of patients” value ([1]; adjusted to INR 2.0 to 3.0) was 331, the “Adverse Event Chest pain” value ([1]; adjusted to INR 2.0 to 3.0) was “(5.7) %” and the “Adverse Event Chest pain, number of patients” value ([1]; adjusted to INR 2.0 to 3.0) was 342. The “Adverse Event Cough” value ([1]; adjusted to INR 2.0 to 3.0) was “(5.8) %”, the “Adverse Event Cough, number of patients” value ([1]; adjusted to INR 2.0 to 3.0) was 345 and the “Adverse Event Diarrhea” value ([1]; adjusted to INR 2.0 to 3.0) was “(5.5) %”. The “Adverse Event Diarrhea, number of patients” value ([1]; adjusted to INR 2.0 to 3.0) was 327, the “Adverse Event Dizziness” value ([1]; adjusted to INR 2.0 to 3.0) was “(9.3) %” and the “Adverse Event Dizziness, number of patients” value ([1]; adjusted to INR 2.0 to 3.0) was 555. For the same compound, the “Adverse Event Dyspepsia” value ([1]; adjusted to INR 2.0 to 3.0) was “(1.4) %”, the “Adverse Event Dyspepsia, number of patients” value ([1]; adjusted to INR 2.0 to 3.0) was 83 and the “Adverse Event Dyspnoea” value ([1]; adjusted to INR 2.0 to 3.0) was “(9.2) %”. For the same compound, the “Adverse Event Dyspnoea, number of patients” value ([1]; adjusted to INR 2.0 to 3.0) was 550, the “Adverse Event Fatigue” value ([1]; adjusted to INR 2.0 to 3.0) was “(5.9) %” and the “Adverse Event Fatigue, number of patients” value ([1]; adjusted to INR 2.0 to 3.0) was 353. For the same compound, the “Adverse Event Nasopharyngitis” value ([1]; adjusted to INR 2.0 to 3.0) was “(5.5) %”, the “Adverse Event Nasopharyngitis, number of patients” value ([1]; adjusted to INR 2.0 to 3.0) was 327 and the “Adverse Event Peripheral edema” value ([1]; adjusted to INR 2.0 to 3.0) was “(7.6) %”. For the same compound, the “Adverse Event Peripheral edema, number of patients” value ([1]; adjusted to INR 2.0 to 3.0) was 453, the “Adverse Event Upper respiratory tract infection” value ([1]; adjusted to INR 2.0 to 3.0) was “(5.0) %” and the “Adverse Event Upper respiratory tract infection, number of patients” value ([1]; adjusted to INR 2.0 to 3.0) was 297. For the same compound, the “Adverse Event Urinary tract infection” value ([1]; adjusted to INR 2.0 to 3.0) was “(5.3) %”, the “Adverse Event Urinary tract infection, number of patients” value ([1]; adjusted to INR 2.0 to 3.0) was 315 and the “Life threatening bleeding, Rate” value ([1]; adjusted to INR 2.0 to 3.0) was 1.80 /100 Person Years. The “Mortality rate (death from any cause)” value ([1]; adjusted to INR 2.0 to 3.0) was 4.13 % per year, the “Other Major bleeding, Rate” value ([1]; adjusted to INR 2.0 to 3.0) was 1.80 /100 Person Years and the “Pulmonary embolism, Rate” value ([1]; adjusted to INR 2.0 to 3.0) was 0.09 /100 Person Years. The “Rate of hemorrhagic stroke” value ([1]; adjusted to INR 2.0 to 3.0) was 0.38 % per year, the “Rate of major hemorrhage (major bleeding)” value ([1]; adjusted to INR 2.0 to 3.0) was 3.46 % per year and the “Rate of myocardial infarction” value ([1]; adjusted to INR 2.0 to 3.0) was 0.54 % per year. The “Rate of net benefit-risk outcome (major vascular events, major bleeding and death)” value ([1]; adjusted to INR 2.0 to 3.0) was 7.99 % per year, the “Rate of primary outcome stroke or systemic embolism” value ([1]; adjusted to INR 2.0 to 3.0) was 1.70 % per year and the “Reason for discontinuation: Gastrointestinal bleeding” value ([1]; adjusted to INR 2.0 to 3.0) was “(0.9) %”. The “Reason for discontinuation: Gastrointestinal disorders (including pain, vomiting and diarrhea)” value ([1]; adjusted to INR 2.0 to 3.0) was “(0.8) %”, the “Reason for discontinuation: Outcome event” value ([1]; adjusted to INR 2.0 to 3.0) was “(2.2) %” and the “Reason for discontinuation: Patient decision” value ([1]; adjusted to INR 2.0 to 3.0) was “(6.2) %”. The “Reason for discontinuation: SAE” value ([1]; adjusted to INR 2.0 to 3.0) was “(1.6) %”, the “Reason for discontinuation: SAE, number of patients” value ([1]; adjusted to INR 2.0 to 3.0) was 95 and the “Stroke, systemic embolism, pulmonary embolism, myocardial infarction death or major bleed (net benefit), Rate” value ([1]; adjusted to INR 2.0 to 3.0) was 7.99 /100 Person Years. The “Study Drug Discontinuation At one year” value ([1]; adjusted to INR 2.0 to 3.0) was 10%, the “Study Drug Discontinuation At two years” value ([1]; adjusted to INR 2.0 to 3.0) was “(19) %” and the “hepatobiliary disorders (AE)” value ([1]; adjusted to INR 2.0 to 3.0) was “(2.2) %”. For the same compound, the “hepatobiliary disorders (AE), number of patients” value ([1]; adjusted to INR 2.0 to 3.0) was 132, the “hepatobiliary disorders (SAE)” value ([1]; adjusted to INR 2.0 to 3.0) was “(0.4) %” and the “hepatobiliary disorders (SAE), number of patients” value ([1]; adjusted to INR 2.0 to 3.0) was 25. For the same compound, the Rate of discontinuation ([1]; adjusted to INR 2.0 to 3.0, at 2.5 years) was 19%, the “Study Drug Discontinuation At one year” value ([1]; adjusted to INR 2.0 to 3.0, listed as Warfarin) was “(10) %” and the “Myocardial Infarction” value [2] was 0.6% (warfarin). The “Stroke and systemic embolism (per 100 patient years)” value [2] was 1.5% (warfarin).
